# System: MV-4-11 cells
# Experiment: Gene expression microarray analysis (Affymetrix PrimeView) and GSEA
# Assay type: cell-based, human
# Design: RFU PODN (11730768_x_at) / Fold change /veh PODN (11730768_x_at) / RFU LINC00158 (11744669_a_at) / Fold change /veh LINC00158 (11744669_a_at) / RFU DUSP10 (11751237_a_at) / Fold change /veh DUSP10 (11751237_a_at) / RFU ID3 (11757404_x_at) / Fold change /veh ID3 (11757404_x_at) / RFU PLEKHG5 (11737974_s_at) / Fold change /veh PLEKHG5 (11737974_s_at) / RFU LRRC4B (11730491_at) / Fold change /veh LRRC4B (11730491_at) / RFU GIMAP4 (11747438_a_at) / Fold change /veh GIMAP4 (11747438_a_at) / RFU KRT8 (11758183_x_at) / Fold change /veh KRT8 (11758183_x_at) / RFU CNN1 (11734310_a_at) / Fold change /veh CNN1 (11734310_a_at) / RFU VPS37D (11726825_at) / Fold change /veh VPS37D (11726825_at) / RFU C10orf10 (11716522_x_at) / Fold change /veh C10orf10 (11716522_x_at) / RFU KIR2DL2 /// KIR2DL4 /// KIR2DL5A /// KIR2DL5B /// KIR2DS1 /// KIR2DS2 /// KIR2DS3 /// KIR2DS4 /// KIR3DL3 /// KIR3DL3 /// KIR3DS1 (11738374_at) / Fold change /veh KIR2DL2 /// KIR2DL4 /// KIR2DL5A /// KIR2DL5B /// KIR2DS1 /// KIR2DS2 /// KIR2DS3 /// KIR2DS4 /// KIR3DL3 /// KIR3DL3 /// KIR3DS1 (11738374_at) / RFU C1QL1 (11718748_at) / Fold change /veh C1QL1 (11718748_at) / RFU TMPRSS4 (11747572_a_at) / Fold change /veh TMPRSS4 (11747572_a_at) / RFU HAMP (11756126_x_at) / Fold change /veh HAMP (11756126_x_at) / RFU RNFT2 (11725882_a_at) / Fold change /veh RNFT2 (11725882_a_at) / RFU NR4A2 (11747474_a_at) / Fold change /veh NR4A2 (11747474_a_at) / RFU ABCC12 (11746883_a_at) / Fold change /veh ABCC12 (11746883_a_at) / RFU TMEM136 (11760407_x_at) / Fold change /veh TMEM136 (11760407_x_at) / RFU CLDN22 /// WWC2 (11732394_at) / Fold change /veh CLDN22 /// WWC2 (11732394_at) / RFU HLA-DPB1 (11760878_x_at) / Fold change /veh HLA-DPB1 (11760878_x_at) / RFU SPINT1 (11716480_a_at) / Fold change /veh SPINT1 (11716480_a_at) / RFU GAP43 (11754022_s_at) / Fold change /veh GAP43 (11754022_s_at) / RFU A4GNT (11735810_at) / Fold change /veh A4GNT (11735810_at) / RFU PRB3 (11715151_x_at) / Fold change /veh PRB3 (11715151_x_at) / RFU TUBB4B (11761932_at) / Fold change /veh TUBB4B (11761932_at) / RFU CAPN14 (11732068_a_at) / Fold change /veh CAPN14 (11732068_a_at) / RFU TMCC2 (11721928_a_at) / Fold change /veh TMCC2 (11721928_a_at) / RFU IRGQ (11745062_a_at) / Fold change /veh IRGQ (11745062_a_at) / RFU FAM174B (11720279_a_at) / Fold change /veh FAM174B (11720279_a_at) / RFU TMPRSS4 (11748680_a_at) / Fold change /veh TMPRSS4 (11748680_a_at) / RFU FAM212B (11763350_a_at) / Fold change /veh FAM212B (11763350_a_at) / RFU PLEKHG5 (11743358_a_at) / Fold change /veh PLEKHG5 (11743358_a_at) / RFU ZSCAN30 (11745921_a_at) / Fold change /veh ZSCAN30 (11745921_a_at) / RFU CMKLR1 (11741424_a_at) / Fold change /veh CMKLR1 (11741424_a_at) / RFU LOC101060620 /// MAPK8IP1 (11723275_at) / Fold change /veh LOC101060620 /// MAPK8IP1 (11723275_at) / RFU SPTSSB (11747773_x_at) / Fold change /veh SPTSSB (11747773_x_at) / RFU PRSS12 (11739890_at) / Fold change /veh PRSS12 (11739890_at) / RFU BIN1 (11741810_x_at) / Fold change /veh BIN1 (11741810_x_at) / RFU WNT11 (11732464_a_at) / Fold change /veh WNT11 (11732464_a_at) / RFU C10orf10 (11716521_a_at) / Fold change /veh C10orf10 (11716521_a_at) / RFU C5orf56 (11738089_at) / Fold change /veh C5orf56 (11738089_at) / RFU CYB561 (11721691_x_at) / Fold change /veh CYB561 (11721691_x_at) / RFU ANKRD19P (11752326_a_at) / Fold change /veh ANKRD19P (11752326_a_at) / RFU OR2T12 /// OR2T33 /// OR2T8 (11738714_s_at) / Fold change /veh OR2T12 /// OR2T33 /// OR2T8 (11738714_s_at) / RFU VCAN (11748164_a_at) / Fold change /veh VCAN (11748164_a_at) / RFU JSRP1 (11732532_at) / Fold change /veh JSRP1 (11732532_at) / RFU KRTAP10-11 (11738290_x_at) / Fold change /veh KRTAP10-11 (11738290_x_at) / RFU MYO3A (11730013_a_at) / Fold change /veh MYO3A (11730013_a_at) / RFU EBF3 (11725865_a_at) / Fold change /veh EBF3 (11725865_a_at) / RFU CAMK2N1 (11719241_x_at) / Fold change /veh CAMK2N1 (11719241_x_at) / RFU C5orf56 (11738088_a_at) / Fold change /veh C5orf56 (11738088_a_at) / RFU OLFML3 (11715873_a_at) / Fold change /veh OLFML3 (11715873_a_at) / RFU LOC100653217 /// NTM (11731650_a_at) / Fold change /veh LOC100653217 /// NTM (11731650_a_at) / RFU MAPK11 (11762145_a_at) / Fold change /veh MAPK11 (11762145_a_at) / RFU FIZ1 (11724087_x_at) / Fold change /veh FIZ1 (11724087_x_at) / RFU OASL (11726364_x_at) / Fold change /veh OASL (11726364_x_at) / RFU SOX15 (11748057_x_at) / Fold change /veh SOX15 (11748057_x_at) / RFU CD79A (11719716_a_at) / Fold change /veh CD79A (11719716_a_at) / RFU HIST1H1D (11736915_at) / Fold change /veh HIST1H1D (11736915_at) / RFU CASKIN2 (11723855_a_at) / Fold change /veh CASKIN2 (11723855_a_at) / RFU LOC730098 (11760151_x_at) / Fold change /veh LOC730098 (11760151_x_at) / RFU OR4N2 (11742367_at) / Fold change /veh OR4N2 (11742367_at) / RFU PRRT2 (11749266_a_at) / Fold change /veh PRRT2 (11749266_a_at) / RFU SNX32 (11753110_a_at) / Fold change /veh SNX32 (11753110_a_at) / RFU CDHR5 (11726645_a_at) / Fold change /veh CDHR5 (11726645_a_at) / RFU RCAN1 (11760418_a_at) / Fold change /veh RCAN1 (11760418_a_at) / RFU FAM167A (11723789_a_at) / Fold change /veh FAM167A (11723789_a_at) / RFU FAM26E (11764081_at) / Fold change /veh FAM26E (11764081_at) / RFU ISYNA1 (11749810_s_at) / Fold change /veh ISYNA1 (11749810_s_at) / RFU ACY1 (11761880_at) / Fold change /veh ACY1 (11761880_at) / RFU 11764098_at / Fold change /veh 11764098_at / RFU SAMD14 (11745864_x_at) / Fold change /veh SAMD14 (11745864_x_at) / RFU NPB (11741838_a_at) / Fold change /veh NPB (11741838_a_at) / RFU TMPRSS6 (11731388_a_at) / Fold change /veh TMPRSS6 (11731388_a_at) / RFU KRTAP10-2 (11738614_at) / Fold change /veh KRTAP10-2 (11738614_at) / RFU ARHGAP8 /// PRR5-ARHGAP8 (11727945_x_at) / Fold change /veh ARHGAP8 /// PRR5-ARHGAP8 (11727945_x_at) / RFU KRTAP5-7 /// NADSYN1 (11734609_at) / Fold change /veh KRTAP5-7 /// NADSYN1 (11734609_at) / RFU RASL12 (11751679_a_at) / Fold change /veh RASL12 (11751679_a_at) / RFU CDKN2B (11736163_a_at) / Fold change /veh CDKN2B (11736163_a_at) / RFU PRF1 (11729649_at) / Fold change /veh PRF1 (11729649_at) / RFU, ZNF638 /// ZNF638-IT1 / Fold change vs veh, ZNF638 /// ZNF638-IT1 / RFU, PANK3 / Fold change vs veh, PANK3 / RFU, SH3YL1 / Fold change vs veh, SH3YL1 / RFU, ZEB2 / Fold change vs veh, ZEB2 / RFU, NRIP1 / Fold change vs veh, NRIP1 / RFU, PTTG1IP / Fold change vs veh, PTTG1IP / RFU, CAPN2 / Fold change vs veh, CAPN2 / RFU, MED14 / Fold change vs veh, MED14 / RFU, SNORA58 / Fold change vs veh, SNORA58 / RFU, C1orf63 / Fold change vs veh, C1orf63 / RFU, LRRFIP1 / Fold change vs veh, LRRFIP1 / RFU, NDUFAF7 / Fold change vs veh, NDUFAF7 / RFU, SLC12A2 / Fold change vs veh, SLC12A2 / RFU, IBTK / Fold change vs veh, IBTK / RFU, ESF1 / Fold change vs veh, ESF1 / Fold change vs veh, TMEM50B / RFU, TAOK1 / Fold change vs veh, TAOK1 / RFU, ACBD3 / Fold change vs veh, ACBD3 / RFU, TMA16 / Fold change vs veh, TMA16 / RFU, RWDD3 / Fold change vs veh, RWDD3 / RFU, BCAT1 / Fold change vs veh, BCAT1 / RFU, EDEM3 / Fold change vs veh, EDEM3 / RFU, TMEM33 / Fold change vs veh, TMEM33 / RFU, WDR75 / Fold change vs veh, WDR75 / RFU, AHCTF1 / Fold change vs veh, AHCTF1 / RFU, TFRC / Fold change vs veh, TFRC / RFU, ZDHHC17 / Fold change vs veh, ZDHHC17 / RFU, NOM1 / Fold change vs veh, NOM1 / RFU, ARL8B / Fold change vs veh, ARL8B / RFU, ZBTB11 / Fold change vs veh, ZBTB11 / RFU, TAMM41 / Fold change vs veh, TAMM41 / RFU, KIAA1704 /// LOC100996395 / Fold change vs veh, KIAA1704 /// LOC100996395 / RFU, ING1 / Fold change vs veh, ING1 / RFU, TRMT61B / Fold change vs veh, TRMT61B / RFU, FUBP3 / Fold change vs veh, FUBP3 / RFU, TP53 / Fold change vs veh, TP53 / RFU, TNKS2 / Fold change vs veh, TNKS2 / RFU, ZFP14 / Fold change vs veh, ZFP14 / RFU, ACTR2 / Fold change vs veh, ACTR2 / RFU, PPP3R1 / Fold change vs veh, PPP3R1 / RFU, PIK3R1 / Fold change vs veh, PIK3R1 / RFU, HNRNPA1 / Fold change vs veh, HNRNPA1 / RFU, RNF170 / Fold change vs veh, RNF170 / RFU, ZNF28 / Fold change vs veh, ZNF28 / RFU, RNGTT / Fold change vs veh, RNGTT / RFU, OGT / Fold change vs veh, OGT / RFU, BRD1 / Fold change vs veh, BRD1 / RFU, MARS / Fold change vs veh, MARS / RFU, ZNF655 / Fold change vs veh, ZNF655 / RFU, FAHD1 / Fold change vs veh, FAHD1 / RFU, BDP1 / Fold change vs veh, BDP1 / RFU, LRRCC1 / Fold change vs veh, LRRCC1 / RFU, ARID1A / Fold change vs veh, ARID1A / RFU, ZNF146 / Fold change vs veh, ZNF146 / RFU, ZNF330 / Fold change vs veh, ZNF330 / RFU, GPN3 / Fold change vs veh, GPN3 / RFU, C9orf123 / Fold change vs veh, C9orf123 / RFU, N4BP2L2 / Fold change vs veh, N4BP2L2 / RFU, ARFIP1 / Fold change vs veh, ARFIP1 / RFU, FAM179B / Fold change vs veh, FAM179B / RFU, BCL10 / Fold change vs veh, BCL10 / RFU, UHRF1BP1L / Fold change vs veh, UHRF1BP1L / RFU, BET1 / Fold change vs veh, BET1 / RFU, CNOT2 / Fold change vs veh, CNOT2 / RFU, ZNF268 / Fold change vs veh, ZNF268 / Fold change vs veh, ZNF507 / RFU, DGCR2 / Fold change vs veh, DGCR2 / RFU, WDSUB1 / Fold change vs veh, WDSUB1 / Fold change vs veh, HSP90B1 /// MIR3652 / RFU, ADSS / Fold change vs veh, ADSS / RFU, GK / Fold change vs veh, GK / RFU, ZNF148 / Fold change vs veh, ZNF148 / RFU, TAF9 / Fold change vs veh, TAF9 / RFU, SLC1A5 / Fold change vs veh, SLC1A5 / RFU, SLMO2 / Fold change vs veh, SLMO2 / RFU, ABCC4 / Fold change vs veh, ABCC4 / RFU, LOC101060439 /// RAP1B / Fold change vs veh, LOC101060439 /// RAP1B / RFU, RFX7 / Fold change vs veh, RFX7 / RFU, GTPBP10 / Fold change vs veh, GTPBP10 / RFU, CNEP1R1 / Fold change vs veh, CNEP1R1 / RFU, BIVM-ERCC5 /// ERCC5 / Fold change vs veh, BIVM-ERCC5 /// ERCC5 / RFU, ILF3 / Fold change vs veh, ILF3 / RFU 11762660_at / Fold change /veh 11762660_at / RFU VCAN (11757783_s_at) / Fold change /veh VCAN (11757783_s_at) / RFU DDX43 (11728927_at) / Fold change /veh DDX43 (11728927_at) / RFU KRT8 (11758188_x_at) / Fold change /veh KRT8 (11758188_x_at) / RFU NKD1 (11759106_at) / Fold change /veh NKD1 (11759106_at) / RFU SRD5A1 (11742802_a_at) / Fold change /veh SRD5A1 (11742802_a_at) / RFU TPSAB1 /// TPSB2 (11721975_s_at) / Fold change /veh TPSAB1 /// TPSB2 (11721975_s_at) / RFU GSTM3 (11746129_a_at) / Fold change /veh GSTM3 (11746129_a_at) / RFU IL23R (11737362_x_at) / Fold change /veh IL23R (11737362_x_at) / RFU TMEM51 (11727254_a_at) / Fold change /veh TMEM51 (11727254_a_at) / RFU PIWIL2 (11732686_x_at) / Fold change /veh PIWIL2 (11732686_x_at) / RFU ORM1 (11744905_x_at) / Fold change /veh ORM1 (11744905_x_at) / RFU CCDC152 (11743942_at) / Fold change /veh CCDC152 (11743942_at) / RFU ECM1 (11717891_a_at) / Fold change /veh ECM1 (11717891_a_at) / RFU IL23R (11748794_a_at) / Fold change /veh IL23R (11748794_a_at) / RFU TNFAIP8L3 (11732012_x_at) / Fold change /veh TNFAIP8L3 (11732012_x_at) / RFU MBOAT4 (11741988_at) / Fold change /veh MBOAT4 (11741988_at) / RFU 11764193_at / Fold change /veh 11764193_at / RFU TMEM53 (11763286_at) / Fold change /veh TMEM53 (11763286_at) / RFU MAGEB2 (11727129_at) / Fold change /veh MAGEB2 (11727129_at) / RFU TMEM200A (11744735_a_at) / Fold change /veh TMEM200A (11744735_a_at) / RFU CCDC152 (11751479_a_at) / Fold change /veh CCDC152 (11751479_a_at) / RFU FAM211A (11726209_a_at) / Fold change /veh FAM211A (11726209_a_at) / RFU RGS16 (11746705_a_at) / Fold change /veh RGS16 (11746705_a_at) / RFU VCAN (11755009_s_at) / Fold change /veh VCAN (11755009_s_at) / RFU RHOB (11743442_s_at) / Fold change /veh RHOB (11743442_s_at) / RFU RGS16 (11720943_a_at) / Fold change /veh RGS16 (11720943_a_at) / RFU RGS16 (11720944_at) / Fold change /veh RGS16 (11720944_at) / RFU, VPS4B / Fold change vs veh, VPS4B / RFU, CREB1 / Fold change vs veh, CREB1 / RFU, DNAJC13 / Fold change vs veh, DNAJC13 / RFU, GNAQ / Fold change vs veh, GNAQ / RFU, CDK5R1 / Fold change vs veh, CDK5R1 / RFU, ZRANB3 / Fold change vs veh, ZRANB3 / RFU, CUL4A / Fold change vs veh, CUL4A / RFU, CCNY / Fold change vs veh, CCNY / RFU, UFL1 / Fold change vs veh, UFL1 / RFU, COG3 / Fold change vs veh, COG3 / RFU, DIAPH2 / Fold change vs veh, DIAPH2 / RFU, SKA2 / Fold change vs veh, SKA2 / RFU, AFF3 / Fold change vs veh, AFF3 / RFU, LMF1 / Fold change vs veh, LMF1 / RFU, IPO11 / Fold change vs veh, IPO11 / RFU, DFFB / Fold change vs veh, DFFB / RFU, FOXP1 / Fold change vs veh, FOXP1 / RFU, CARD8 / Fold change vs veh, CARD8 / RFU, STRN3 / Fold change vs veh, STRN3 / RFU, ADK / Fold change vs veh, ADK / RFU, RASSF2 / Fold change vs veh, RASSF2 / RFU, WIPF1 / Fold change vs veh, WIPF1 / RFU, LARP1B / Fold change vs veh, LARP1B / RFU, RASA1 / Fold change vs veh, RASA1 / RFU, RB1 / Fold change vs veh, RB1 / RFU, PPFIA1 / Fold change vs veh, PPFIA1 / RFU, MAT2A / Fold change vs veh, MAT2A / RFU, CCT5 / Fold change vs veh, CCT5 / RFU, WDR92 / Fold change vs veh, WDR92 / RFU, CUX1 / Fold change vs veh, CUX1 / RFU, TTC7A / Fold change vs veh, TTC7A / RFU, TMEM135 / Fold change vs veh, TMEM135 / RFU, DEPTOR / Fold change vs veh, DEPTOR / RFU, CPM / Fold change vs veh, CPM / RFU, DNAJB6 / Fold change vs veh, DNAJB6 / RFU, CACNA2D3 / Fold change vs veh, CACNA2D3 / RFU, DTX4 / Fold change vs veh, DTX4 / RFU, TFCP2 / Fold change vs veh, TFCP2 / RFU, GMCL1 /// GMCL1P1 / Fold change vs veh, GMCL1 /// GMCL1P1 / RFU, AEBP2 / Fold change vs veh, AEBP2 / RFU, SNHG1 /// SNORD22 /// SNORD25 /// SNORD26 /// SNORD27 /// SNORD28 /// SNORD29 /// SNORD31 / Fold change vs veh, SNHG1 /// SNORD22 /// SNORD25 /// SNORD26 /// SNORD27 /// SNORD28 /// SNORD29 /// SNORD31 / Fold change (Aza/veh), C12orf56 (ProbeSet 11735607_a_at) / Fold change (ACY-1035/veh), C12orf56 (ProbeSet 11735607_a_at) / Fold change (Aza/veh), FGFR1OP (ProbeSet 11751329_s_at) / Fold change (ACY-1035/veh), FGFR1OP (ProbeSet 11751329_s_at) / Fold change (Aza/veh), VPS36 (ProbeSet 11739960_a_at) / Fold change (ACY-1035/veh), VPS36 (ProbeSet 11739960_a_at) / RFU SYPL1 (11715823_x_at) / Fold change /veh SYPL1 (11715823_x_at) / RFU IGFBP7 (11715501_s_at) / Fold change /veh IGFBP7 (11715501_s_at) / RFU REEP3 (11722064_at) / Fold change /veh REEP3 (11722064_at) / RFU IGLL1 (11728026_x_at) / Fold change /veh IGLL1 (11728026_x_at): dose or concentration left out as unconfirmed
# Settings: ProbeSet 11725885_a_at; LIST B
smiles,measurement,value
Nc1ncn([C@@H]2O[C@H](CO)[C@@H](O)[C@H]2O)c(=O)n1 [azacitidine],"Fold change vs veh, CNEP1R1",0.86

# Source: PMC5218480 (PLoS ONE, 2017)
